{"source": "patent US20240284906A1", "about": "“HERBICIDAL COMPOSITIONS CONTAINING CINMETHYLINE AND ETHOFUMESATE” (BAYER AKTIENGESELLSCHAFT, priority 2021, published 2024)", "key": {"Veronica persica": {"system": "Veronica persica", "assay": "Pre-emergence weed control, pot trial", "format": "in vivo", "conditions": "pre-emergence (BBCH 00), 27 DAA, scale 0-100", "procedure": "(§1) The following plant species were selected for the tests:\n(§2) The seeds of the abovementioned biotypes were sown in 8 cm pots (LSI; pH 7.4; % C org 2.2). The temperature was kept at about 23°/15° C. day/night. After the herbicides had been applied (300 l water/ha), the pots were irrigated from beneath as required. Two trials were conducted. In a pre-emergence trial, the herbicides were applied directly after sowing at the BBCH 00 growth stage. In a post-emergence trial, the herbicides were deployed at the BBCH 11-12 growth stage.\n(§3) The active herbicidal ingredient cinmethylin was used as commercial emulsifiable concentrate (EC) LUMIMAX. Ethofumesate was used in the form of the commercial suspension concentrate (SC) Nortron. A methylated seed oil (Mero) was added to the spray liquids in an amount of 1 l/ha in order to assure good retention characteristics.\n(§4) The percentage of weed control (2 repetitions) was rated 27 days after the application of herbicide (DAA) on a scale of 0-100. A rating of 0 means no control, and 100 means complete control.\n(§5) According to Colby, synergistic effects of active herbicidal ingredients are indicated when the measured efficacy is higher than that expected, which is calculated by its formula for 2-substance mixtures: EC=A+B−(A×B)/100"}, "Avena fatua": {"system": "Avena fatua", "assay": "Pre-emergence weed control, pot trial", "format": "in vivo", "conditions": "pre-emergence (BBCH 00), 27 DAA, scale 0-100", "procedure": "as §1, §2, §3, §4, §5"}, "MATIN [1]": {"system": "MATIN", "assay": "Pre-emergence weed control, pot trial", "format": "in vivo, Matricaria inodora", "conditions": "pre-emergence (BBCH 00), 27 DAA, scale 0-100", "procedure": "as §1, §2, §3, §4, §5"}, "MATIN [2]": {"system": "MATIN", "assay": "Post-emergence weed control, pot trial", "format": "in vivo, Matricaria inodora", "conditions": "post-emergence (BBCH 11-12), 27 DAA, scale 0-100", "procedure": "as §1, §2, §3, §4, §5"}, "Alopecurus myosuroides": {"system": "Alopecurus myosuroides", "assay": "Post-emergence weed control, pot trial", "format": "in vivo", "conditions": "post-emergence (BBCH 11-12), 27 DAA, scale 0-100", "procedure": "as §1, §2, §3, §4, §5"}, "Lolium rigidum": {"system": "Lolium rigidum", "assay": "Post-emergence weed control, pot trial", "format": "in vivo", "conditions": "post-emergence (BBCH 11-12), 27 DAA, scale 0-100", "procedure": "as §1, §2, §3, §4, §5"}, "Abuthilon theophrasti": {"system": "Abuthilon theophrasti", "assay": "Post-emergence weed control, pot trial", "format": "in vivo", "conditions": "post-emergence (BBCH 11-12), 27 DAA, scale 0-100", "procedure": "as §1, §2, §3, §4, §5"}}, "data": [{"smiles": "Cc1ccccc1CO[C@@H]1C[C@]2(C(C)C)CC[C@@]1(C)O2", "note": "(racemic) [Cinmethylin, (+/−)-2-exo-(2-methylbenzyloxy)-1-methyl-4-isopropyl-7-oxabicyclo[2.2.1]heptane]", "values": [{"measurement": "Efficacy (percentage of weed control) VERPE", "setting": "Veronica persica; 50 g ai/ha", "result": 20, "unit": "%"}, {"measurement": "Efficacy (percentage of weed control) AVEFA", "setting": "Avena fatua; 100 g ai/ha", "result": 70, "unit": "%"}, {"measurement": "Efficacy (percentage of weed control) MATIN", "setting": "MATIN [1]; 50 g ai/ha", "result": 70, "unit": "%"}, {"measurement": "Efficacy (percentage of weed control) MATIN", "setting": "MATIN [2]; 25 g ai/ha", "result": 20, "unit": "%"}, {"measurement": "Efficacy (percentage of weed control) ALOMY", "setting": "Alopecurus myosuroides; 100 g ai/ha", "result": 78, "unit": "%"}, {"measurement": "Efficacy (percentage of weed control) LOLRI", "setting": "Lolium rigidum; 100 g ai/ha", "result": 63, "unit": "%"}, {"measurement": "Efficacy (percentage of weed control) ABUTH", "setting": "Abuthilon theophrasti; 100 g ai/ha", "result": 35, "unit": "%"}]}, {"smiles": "CCOC1Oc2ccc(OS(C)(=O)=O)cc2C1(C)C", "note": "(centres unmarked) [Ethofumesate]", "values": [{"measurement": "Efficacy (percentage of weed control) VERPE", "setting": "Veronica persica; 10 g ai/ha", "result": 0, "unit": "%"}, {"measurement": "Efficacy (percentage of weed control) AVEFA", "setting": "Avena fatua; 20 g ai/ha", "result": 0, "unit": "%"}, {"measurement": "Efficacy (percentage of weed control) MATIN", "setting": "MATIN [1]; 10 g ai/ha", "result": 0, "unit": "%"}, {"measurement": "Efficacy (percentage of weed control) MATIN", "setting": "MATIN [2]; 50 g ai/ha", "result": 10, "unit": "%"}, {"measurement": "Efficacy (percentage of weed control) ALOMY", "setting": "Alopecurus myosuroides; 20 g ai/ha", "result": 0, "unit": "%"}, {"measurement": "Efficacy (percentage of weed control) LOLRI", "setting": "Lolium rigidum; 20 g ai/ha", "result": 0, "unit": "%"}, {"measurement": "Efficacy (percentage of weed control) ABUTH", "setting": "Abuthilon theophrasti; 20 g ai/ha", "result": 0, "unit": "%"}]}]}
